Test results reported in paper PMC4704819, “Honey Bee Allatostatins Target Galanin/Somatostatin-Like Receptors and Modulate Learning: A Conserved Function?” (PLoS ONE, 2016).
*1 amine or outer side, *2 acyl side, *3 side chain or, on linkers, in order; H or OH if unused. Where a SMILES comes first, the peptide text is derived from it. Where no end group is shown, it is not given here. Side-chain parts run from the residue outwards. [ ]: non-standard residue; d: D form. The star is where a group is joined. Ethylenediamine = C(CN[*:2])N[*:1]; Hyp = O=C(O)[C@@H]1C[C@@H](O)CN1; Phg = N[C@H](C(=O)O)c1ccccc1; CO = O=C([*:1])[*:2]; Bn = c1ccc(C*)cc1

Key:
Apime-ASTA-R [1] = molecular target: T1, Apime-ASTA-R (Apis mellifera, UniProt A0A7M7ILT1); assay: Intracellular cAMP reporter assay, HEK293 cells expressing Apime-ASTA-R; type: cell-based
T1 sequence (A0A7M7ILT1 1-361): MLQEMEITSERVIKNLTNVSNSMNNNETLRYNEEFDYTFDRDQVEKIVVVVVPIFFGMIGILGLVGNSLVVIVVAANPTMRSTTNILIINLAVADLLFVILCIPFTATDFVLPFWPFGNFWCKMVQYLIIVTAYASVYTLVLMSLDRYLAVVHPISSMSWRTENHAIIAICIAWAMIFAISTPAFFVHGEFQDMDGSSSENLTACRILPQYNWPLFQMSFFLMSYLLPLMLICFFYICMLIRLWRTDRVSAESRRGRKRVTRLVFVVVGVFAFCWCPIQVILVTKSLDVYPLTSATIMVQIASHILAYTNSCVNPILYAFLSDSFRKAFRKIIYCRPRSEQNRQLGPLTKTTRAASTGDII
Procedure: (§1) For intracellular cAMP measurements, cells were bathed in trypsin EDTA and collected, then suspended in fresh DMEM. Transfections with pRK5-ApimeAstC-R, pRK5-ApimeAstA-R or empty pRK5 vector were carried out in 15 ml Falcon tubes. Transfection medium for HEK293 cells was prepared using the Lipofectamine LTX kit (Invitrogen) with 2.5 ml Opti-MEM® (Gibco), 12.5 μl Plus™ Reagent and 4 μg of ApimeASTC-R (or ApimeASTA-R, or empty) expression construct, and 2 μg of CRE(6x)-Luc plasmid. The luciferase ORF, downstream of six tandem repeats of a cyclic AMP responsive element (CRE), in front of a minimum collate promoter, was used as a reporter gene (this reporter plasmid has been used by others)
We followed a previousy published protocol: HEK293 cells in Dulbecco's Modified Eagles Medium nutrient mixture F12-Ham (DMEM/F12, Sigma–Aldrich) supplemented with 10% heat-inactivated fetal bovine serum (Gibco), 100 IU/ml penicillin, 100 μg/ml streptomycin (Gibco) were maintained in an incubator at 37°C with constant supply of 5% CO2, until they reached 60–80% confluence. Cells were then bathed in trypsin EDTA (Gibco) until rounded. The flask was then tapped to loosen the cells, which were subsequently washed off with 5 ml DMEM/F12. […]
Prior to measuring cAMP, the cell medium was removed by carefully inverting the 96-well plate on filter paper and quickly replaced with 100 μl of DMEM/F12 without phenol red (Invitrogen), but containing 200 μM 3-isobutyl-1-methylxanthine (IBMX, Sigma–Aldrich) to prevent cAMP breakdown, as well as drugs to be tested. […] The 96-well plate was then placed in the dark for 15 min before light emission resulting from luciferase enzymatic activity was recorded. Measurements lasting 0.2 s/well were taken every 55 s for 10 cycles using a FLUOstar Omega microplate reader (BMG Labtech). Results were analyzed by means of the Omega software packages and further processed by Excel and GraphPad Prism softwares. […]

[2] = tested on: mock-transfected HEK293 cells; assay: Intracellular cAMP reporter assay, mock-transfected HEK293 cells (empty vector); type: cell-based, human
Procedure: as §1
(§2) We followed a previousy published protocol: HEK293 cells in Dulbecco's Modified Eagles Medium nutrient mixture F12-Ham (DMEM/F12, Sigma–Aldrich) supplemented with 10% heat-inactivated fetal bovine serum (Gibco), 100 IU/ml penicillin, 100 μg/ml streptomycin (Gibco) were maintained in an incubator at 37°C with constant supply of 5% CO2, until they reached 60–80% confluence. Cells were then bathed in trypsin EDTA (Gibco) until rounded. The flask was then tapped to loosen the cells, which were subsequently washed off with 5 ml DMEM/F12. The cells were gently centrifuged at 800 rpm for 5 minutes and carefully suspended in fresh DMEM, which was divided in two for transfection with receptor constructs or empty vectors. After 5 min at room temperature, 30 μl LTX was added. After an incubation period of 30 min at room temperature, the DNA/LTX mix was added to the cells. The cells were then aliquoted (100 μl per well) into a clear bottom 96-well plate (Greiner bio-one #655090) and incubated overnight (37°C, 5% CO2).
(§3) Prior to measuring cAMP, the cell medium was removed by carefully inverting the 96-well plate on filter paper and quickly replaced with 100 μl of DMEM/F12 without phenol red (Invitrogen), but containing 200 μM 3-isobutyl-1-methylxanthine (IBMX, Sigma–Aldrich) to prevent cAMP breakdown, as well as drugs to be tested. In each experiment, some wells were used to measure basal levels of cAMP in the cells (negative control), while others were used to measure cAMP levels in cells exposed to 10 μM forskolin analogue (NKH-477, Sigma Aldrich, positive control). […] All cells were incubated at 37°C and 5% CO2 for 3–4 h to allow transcription of the reporter gene before 100 μl of freshly reconstituted Steadylite Plus™ substrate (PerkinElmer) was added to each well. The 96-well plate was then placed in the dark for 15 min before light emission resulting from luciferase enzymatic activity was recorded. Measurements lasting 0.2 s/well were taken every 55 s for 10 cycles using a FLUOstar Omega microplate reader (BMG Labtech). Results were analyzed by means of the Omega software packages and further processed by Excel and GraphPad Prism softwares. In order to facilitate comparisons across experiments, bioluminescence levels are expressed relative to those in mock-transfected cells (transfected with the vector devoid of the receptor sequence) untreated with NKH-477, which were arbitrarily set at 100.
(§4) To test this prediction, we expressed the two receptors separately in HEK293 cells together with the luciferase reporter gene, downstream of the cAMP response element, CRE, but without exogenous G proteins.

Apime-ASTC-R [3] = molecular target: T2, Apime-ASTC-R (Apis mellifera, UniProt A0A7M7GNE5); assay: Intracellular cAMP reporter assay, HEK293 cells expressing Apime-ASTC-R; type: cell-based; settings: Fig 5B, 2 transfections in duplicates or triplicates
T2 sequence (A0A7M7GNE5 1-423): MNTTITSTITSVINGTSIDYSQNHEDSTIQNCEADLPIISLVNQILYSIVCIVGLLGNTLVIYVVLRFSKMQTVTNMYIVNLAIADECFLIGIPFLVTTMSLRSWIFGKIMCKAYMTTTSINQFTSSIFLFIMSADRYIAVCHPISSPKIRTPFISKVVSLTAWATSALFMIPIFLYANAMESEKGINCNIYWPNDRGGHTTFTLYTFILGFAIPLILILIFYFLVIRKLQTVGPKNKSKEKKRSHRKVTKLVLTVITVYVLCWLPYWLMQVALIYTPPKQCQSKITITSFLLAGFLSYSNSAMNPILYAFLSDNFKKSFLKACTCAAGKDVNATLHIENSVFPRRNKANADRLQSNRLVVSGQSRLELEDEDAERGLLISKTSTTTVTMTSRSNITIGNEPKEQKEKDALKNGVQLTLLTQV
Procedure: as §1, §2, §3, §4

Apime-ASTC-R [4] = molecular target: T2, Apime-ASTC-R; assay: Intracellular calcium measurement, HEK293 cells expressing Apime-ASTC-R with Gαqi9 chimeric G protein; type: cell-based; settings: concentrations up to 0.1mM; data not shown
Procedure: (§5) This vector contains an ATG initiation codon in phase with a mammalian signal peptide sequence of metabotropic glutamate receptor 5 to address receptor protein to the cell membrane, with a hemagglutinin sequence (TAG HA), and MluI and HindIII restriction sites used for cloning. The coding regions of the genes of interest were PCR amplified from cDNA template. After extraction from whole brains, 1 μg of total RNA was reverse-transcribed with random primers. […] PCR reactions included: 30s at 98°C, then 30 cycles of 10s at 98°C, 30s at 60°C, 1 min at 72°C and finally, 5 minutes at 72°C. Cloning required several amplification and digestion steps to insert the full cDNA sequences in the vector.
In all cases, 2 μg of plasmid DNA encoding the Gαqi9 chimeric G protein was included to enable artificial coupling of the receptors to phospholipase C. […]
Cells were washed with freshly prepared 20 mM Hepes, 1 mM MgSO4, 3.3 mM Na2CO3, 1.3 mM CaCl2, 0.1% BSA, 2.5 mM probenecid in 1X Hank's balanced salt solution (Gibco #14185), pH7.4 buffer and loaded with 1 μM Ca^2+-sensitive fluorescent dye Fluo-4 AM (Invitrogen # F14202) for 1 h at 37°C. […] Fluorescence signals (excitation 485 nm, emission 525 nm) were measured by using the fluorescence microplate reader Flexstation (Molecular Devices) at sampling intervals of 1.5 s for 60 s. […]

Apime-ASTA-R [5] = molecular target: T1, Apime-ASTA-R; assay: Intracellular calcium measurement, HEK293 cells expressing Apime-ASTA-R with Gαqi9 chimeric G protein; type: cell-based
Procedure: as §5
In all cases, 2 μg of plasmid DNA encoding the Gαqi9 chimeric G protein was included to enable artificial coupling of the receptors to phospholipase C. Electroporation (250 V, 800 μF, Biorad GenePulser X-cell) was performed in a total volume of 300 μl of electroporation buffer (50 mM K2HPO4, 20 mM CH3COOK, 20 mM KOH, 26.5 mM MgSO4, pH 7.4). After electroporation, cells were resuspended in 10 ml of culture medium and split (100 μl/well) into polyornithine-coated (Sigma #P3655), black-walled, clear bottom 96-well plates (Greiner bio-one #655090) and grown for a further 48 h prior to analyzing receptor properties. All products used for cell culture were purchased from Invitrogen Life Technologies.
Cells were washed with freshly prepared 20 mM Hepes, 1 mM MgSO4, 3.3 mM Na2CO3, 1.3 mM CaCl2, 0.1% BSA, 2.5 mM probenecid in 1X Hank's balanced salt solution (Gibco #14185), pH7.4 buffer and loaded with 1 μM Ca^2+-sensitive fluorescent dye Fluo-4 AM (Invitrogen # F14202) for 1 h at 37°C. Cells were washed once and incubated with 50 μl of buffer. A plate was prepared with the various concentrations of peptides to be tested, and 50 μl of 2X concentrated-drug solution was added in each well after 20 s of recording. Fluorescence signals (excitation 485 nm, emission 525 nm) were measured by using the fluorescence microplate reader Flexstation (Molecular Devices) at sampling intervals of 1.5 s for 60 s. All represented data correspond to means ± standard deviation (SD) from experiments performed in triplicate.
This method allows detecting ligand-induced activation of the receptor by measuring the release of intracellular calcium.

C=C[C@@]1(C)CC(=O)[C@]2(O)[C@@]3(C)[C@@H](O)CCC(C)(C)[C@@H]3[C@H](OC(=O)CCN(C)C)[C@H](OC(C)=O)[C@@]2(C)O1.Cl [NKH-477, reference compound]
ability to increase bioluminescence versus mock-transfected cells, in words (Apime-ASTA-R [1]; Fig 5B, 2 transfections in duplicates or triplicates): reduced ability to increase bioluminescence levels | increase in cAMP levels (bioluminescence) (Apime-ASTA-R [1]; same concentrations as in mock cells (10 nM to 10 μM), CRE-luciferase, IBMX, Fig 5B, 2 transfections in duplicates or triplicates): 1.59 fold | increase in bioluminescence (cAMP), in words ([2]; 10 nM to 10 μM): increased bioluminescence in a dose-dependent manner | increase in bioluminescence (cAMP) compared to baseline ([2]; 10 μM, CRE-luciferase, 200 μM IBMX, Fig 5B, 2 transfections in duplicates or triplicates): 2.5 fold | ability to increase bioluminescence versus mock-transfected cells, in words (Apime-ASTC-R [3]): reduced ability to increase bioluminescence levels | increase in cAMP levels (bioluminescence) (Apime-ASTC-R [3]; same concentrations as in mock cells (10 nM to 10 μM), CRE-luciferase, IBMX): 1.24 fold

NCCCC[C@@H]1NC(=O)[C@@H](Cc2c[nH]c3ccccc23)NC(=O)[C@H](c2ccccc2)NC(=O)[C@@H]2C[C@@H](OC(=O)NCCN)CN2C(=O)[C@H](Cc2ccccc2)NC(=O)[C@H](Cc2ccc(OCc3ccccc3)cc2)NC1=O [SOM230, reference compound] (cyclo([Hyp]([CO-Ethylenediamine])[Phg][dW]KY(Bn)F); ring closure inferred)
calcium release (Apime-ASTC-R [4]): No calcium release was detected | calcium release (Apime-ASTA-R [5]; concentrations up to 0.1mM, data not shown): No calcium release was detected

GRQPYSFGL-NH2 [Apime-ASTA]
EC50 (Apime-ASTA-R [1]; CRE-luciferase, 200 μM IBMX, no exogenous G protein, 37°C 3–4 h, normalized to mock-transfected cells, 3 independent transfections in triplicate, Fig 5C, read-out: mean EC50, increase in cAMP levels): 103 nM | EC50 (Apime-ASTA-R [5]; HEK293, Gαqi9, Fluo-4 AM, Flexstation (ex 485 nm, em 525 nm), pH 7.4, experiments in triplicate, read-out: EC50, calcium release): 1.99 nM
